Experimental data taken from the CheMixHub viscosity set.
± gives the uncertainty stated by the source.

Assay: xn = mol fraction of the nth substance listed

CCCC(=O)O + O
viscosity (293.15 K, 101 kPa, x1 = 0.015): 1.31 ± 0.01 mPa·s
viscosity (293.15 K, 101 kPa, x1 = 0.034): 1.64 ± 0.02 mPa·s
viscosity (293.15 K, 101 kPa, x1 = 0.078): 2.41 ± 0.02 mPa·s
viscosity (293.15 K, 101 kPa, x1 = 0.165): 3.24 ± 0.04 mPa·s
viscosity (293.15 K, 101 kPa, x1 = 0.316): 3.71 ± 0.05 mPa·s
viscosity (293.15 K, 101 kPa, x1 = 0.497): 3.6 ± 0.06 mPa·s
viscosity (293.15 K, 101 kPa, x1 = 0.664): 3.25 ± 0.06 mPa·s
viscosity (293.15 K, 101.33 kPa, x1 = 0.0222): 1.332 ± 0.013 mPa·s
viscosity (293.15 K, 101.33 kPa, x1 = 0.0806): 2.265 ± 0.023 mPa·s
viscosity (293.15 K, 101.33 kPa, x1 = 0.17): 3.095 ± 0.031 mPa·s
viscosity (298.15 K, 101 kPa, x1 = 0.006288): 0.973 ± 0.026 mPa·s
viscosity (298.15 K, 101 kPa, x1 = 0.01294): 1.065 ± 0.029 mPa·s
viscosity (298.15 K, 101 kPa, x1 = 0.02): 1.152 ± 0.031 mPa·s
viscosity (298.15 K, 101 kPa, x1 = 0.02743): 1.248 ± 0.034 mPa·s
viscosity (298.15 K, 101 kPa, x1 = 0.03475): 1.344 ± 0.036 mPa·s
viscosity (298.15 K, 101 kPa, x1 = 0.04154): 1.44 ± 0.039 mPa·s
viscosity (298.15 K, 101 kPa, x1 = 0.04898): 1.55 ± 0.042 mPa·s
viscosity (298.15 K, 101 kPa, x1 = 0.05981): 1.695 ± 0.046 mPa·s
viscosity (298.15 K, 101 kPa, x1 = 0.07342): 1.881 ± 0.051 mPa·s
viscosity (298.15 K, 101 kPa, x1 = 0.08697): 2.038 ± 0.055 mPa·s
viscosity (298.15 K, 101 kPa, x1 = 0.1045): 2.222 ± 0.06 mPa·s
viscosity (298.15 K, 101 kPa, x1 = 0.1191): 2.365 ± 0.064 mPa·s
viscosity (298.15 K, 101 kPa, x1 = 0.133): 2.463 ± 0.066 mPa·s
viscosity (298.15 K, 101 kPa, x1 = 0.144): 2.538 ± 0.068 mPa·s
viscosity (298.15 K, 101 kPa, x1 = 0.17): 2.699 ± 0.073 mPa·s
viscosity (298.15 K, 101 kPa, x1 = 0.2): 2.823 ± 0.076 mPa·s
viscosity (298.15 K, 101 kPa, x1 = 0.237): 2.941 ± 0.079 mPa·s
viscosity (298.15 K, 101 kPa, x1 = 0.277): 3.039 ± 0.081 mPa·s
viscosity (298.15 K, 101 kPa, x1 = 0.321): 3.121 ± 0.084 mPa·s
viscosity (298.15 K, 101 kPa, x1 = 0.36): 3.129 ± 0.084 mPa·s
viscosity (298.15 K, 101 kPa, x1 = 0.408): 3.136 ± 0.084 mPa·s
viscosity (298.15 K, 101 kPa, x1 = 0.472): 3.095 ± 0.083 mPa·s
viscosity (298.15 K, 101 kPa, x1 = 0.529): 3.032 ± 0.081 mPa·s
viscosity (298.15 K, 101 kPa, x1 = 0.618): 2.861 ± 0.076 mPa·s
viscosity (298.15 K, 101 kPa, x1 = 0.669): 2.702 ± 0.072 mPa·s
viscosity (298.15 K, 101 kPa, x1 = 0.816): 2.249 ± 0.06 mPa·s
viscosity (308.15 K, 101 kPa, x1 = 0.006288): 0.777 ± 0.021 mPa·s
viscosity (308.15 K, 101 kPa, x1 = 0.01294): 0.844 ± 0.023 mPa·s
viscosity (308.15 K, 101 kPa, x1 = 0.02): 0.911 ± 0.024 mPa·s
viscosity (308.15 K, 101 kPa, x1 = 0.02743): 0.979 ± 0.026 mPa·s
viscosity (308.15 K, 101 kPa, x1 = 0.03475): 1.048 ± 0.028 mPa·s
viscosity (308.15 K, 101 kPa, x1 = 0.04154): 1.12 ± 0.03 mPa·s
viscosity (308.15 K, 101 kPa, x1 = 0.04898): 1.201 ± 0.032 mPa·s
viscosity (308.15 K, 101 kPa, x1 = 0.05981): 1.308 ± 0.035 mPa·s
viscosity (308.15 K, 101 kPa, x1 = 0.07342): 1.445 ± 0.039 mPa·s
viscosity (308.15 K, 101 kPa, x1 = 0.08697): 1.563 ± 0.042 mPa·s
viscosity (308.15 K, 101 kPa, x1 = 0.1045): 1.695 ± 0.046 mPa·s
viscosity (308.15 K, 101 kPa, x1 = 0.1191): 1.769 ± 0.048 mPa·s
viscosity (308.15 K, 101 kPa, x1 = 0.133): 1.873 ± 0.05 mPa·s
viscosity (308.15 K, 101 kPa, x1 = 0.144): 1.932 ± 0.052 mPa·s
viscosity (308.15 K, 101 kPa, x1 = 0.17): 2.049 ± 0.055 mPa·s
viscosity (308.15 K, 101 kPa, x1 = 0.2): 2.15 ± 0.058 mPa·s
viscosity (308.15 K, 101 kPa, x1 = 0.237): 2.243 ± 0.06 mPa·s
viscosity (308.15 K, 101 kPa, x1 = 0.277): 2.322 ± 0.062 mPa·s
viscosity (308.15 K, 101 kPa, x1 = 0.321): 2.392 ± 0.064 mPa·s
viscosity (308.15 K, 101 kPa, x1 = 0.36): 2.415 ± 0.065 mPa·s
viscosity (308.15 K, 101 kPa, x1 = 0.408): 2.415 ± 0.065 mPa·s
viscosity (308.15 K, 101 kPa, x1 = 0.472): 2.398 ± 0.064 mPa·s
viscosity (308.15 K, 101 kPa, x1 = 0.529): 2.358 ± 0.063 mPa·s
viscosity (308.15 K, 101 kPa, x1 = 0.618): 2.248 ± 0.06 mPa·s
viscosity (308.15 K, 101 kPa, x1 = 0.669): 2.142 ± 0.057 mPa·s
viscosity (308.15 K, 101 kPa, x1 = 0.816): 1.819 ± 0.049 mPa·s
viscosity (313.15 K, 101.33 kPa, x1 = 0.0222): 0.848 ± 0.0085 mPa·s
viscosity (313.15 K, 101.33 kPa, x1 = 0.0806): 1.327 ± 0.013 mPa·s
viscosity (313.15 K, 101.33 kPa, x1 = 0.17): 1.786 ± 0.018 mPa·s
